In brackets after ≈: the same amount, converted by molar mass. Where only a bound is given, the exact number is not on record here.

The subject of data set [1] is Bacillus cereus ATCC 10702. The data set is described as follows: Minimum inhibitory concentration by broth dilution method. Type of data set: cell-based. To be noted: ATCC10702. The source says: (§1) To illustrate such activity, minimum inhibitory concentrations (as determined by the broth dilution method) of the compound against several bacteria are shown in the Table below.
In general terms: Dilution methods test growth across graded concentrations, often in twofold steps.

Data set [2] relates to Bacillus subtilis NRRL B-558. The data set is described as above. Type of data set: cell-based. To be noted: NRRLB558.
Source text: as §1

In data set [3] the test system is Corynebacterium bovis 1810. The description is as above. Type of data set: cell-based.
Source text: as §1

Data set [4] deals with Micrococcus flavus FDA 16. Described as above. The note with it: FDA16. Type of data set: cell-based.
Source text: as §1

The test system of data set [5] is Pseudomonas aeruginosa A3. The data set is described as above. Type of data set: cell-based.
Source text: as §1

The next data set relates to Sarcina lutea PCI 1001. The description is as above. Type of data set: cell-based. The note with it: Micrococcus luteus, PCI1001.
Source text: as §1

A further data set relates to Staph. aureus FDA 209P. The description is as above. Type of data set: cell-based. The note with it: Staphylococcus aureus, FDA209P.
Source text: as §1

For a further data set, the system named is Staph. aureus Smith. Described as above. Type of data set: cell-based. The note with it: Staphylococcus aureus.
Source text: as §1

Data set [6] has as its system leukemic cells L1210. The data set is described as follows: Inhibition of growth of cultivated leukemic cells L1210 of mice. To be noted: for IC50: Mus musculus, growth, RPMI 1640, 20% calf serum, 37° C. Type of data set: cell-based. Here is the method: (§2) (A) Activity of inhibiting growth, DNA synthesis and RNA synthesis of cultivated leukemic cells L1210 of mice.
For example, L1210 cells were inoculated in a concentration of 5×10^4 /ml in an RPMI 1640 culture medium containing 20% calf serum (Rosewell Memorial Park Institute 1640), and simultaneously 3'-deamino-3'-morpholino-carminomycin was added in various concentrations. Thus, the cells were cultivated in an incubator containing carbon dioxide gas at 37° C. The 50% growth inhibitory concentration with respect to a control group was determined.

In data set [7] the test system is leukemic cells L1210. The data set is described as follows: Inhibition of DNA synthesis (14C-thymidine incorporation) in cultivated leukemic cells L1210 of mice. The note with it: Mus musculus, L1210, 1 h, 60 minutes, 37° C., RPMI 1640, 10% calf serum. Type of data set: cell-based. As to the method:
as §2
(§3) Separately, the above cultivated cells L1210 were suspended in a concentration of 1×10^5 /ml in an RPMI 1640 medium containing 10% of calf serum, and cultivated for 1 to 2 hours in an incubator containing carbon dioxide gas at 37° C. Then, 3'-deamino-3'-morpholino-carminomycin was added in various concentrations,and 15 minutes later, ^14 C-uridine (0.05 μCi/ml) and ^14 C-thymidine (0.05 μCi/ml) were added. Thus, the cells were cultivated at 37° C. for 60 minutes. A 10% aqueous solution of trichloroacetic acid was added to the reaction liquor to stop the reaction and simultaneously precipitate an acid-insoluble matter. The acid-insoluble matter was washed three times with a 10-5% aqueous solution of trichloroacetic acid, and then dissolved in formic acid. The radioactivity of the acid-insoluble matter was measured. From the ratio of incorporated radiation to that of a control group, the concentrations which inhibited radiation by 50% were measured.
For orientation: Uptake of a labelled nucleoside into DNA is a usual measure of proliferation.

The test system of data set [8] is leukemic cells L1210. Briefly: Inhibition of RNA synthesis (14C-uridine incorporation) in cultivated leukemic cells L1210 of mice. Type of data set: cell-based. The note with it: Mus musculus, L1210, 1 h, 60 minutes, 37° C., RPMI 1640, 10% calf serum. As to the method: as §2, §3
The subject of data set [9] is leukemic cells L1210. The data set is described as follows: Antitumor activity on CDF1 mouse leukemia induced by leukemic cells L1210. Type of data set: in vivo, CDF1 mice. To be noted: 10 consecutive days. Here is the method:
(B) Antitumor activitiy on CDF1 mouse leukemia induced by leukemic cells L1210 of mice.
Leukemic cells L1210 of mice were intraperitoneally transplanted in an amount of 1×10^5 per mouse in CDF1 mice. Starting 24 hours after the transplantation, 3'-deamino-3'-morpholino-carminomycin was intraperitoneally or orally administered to the mice for 10 consecutive days. The survival rate (T/C, %) was calculated in comparison with a control group (to which physiological saline was administered).

Data set [10] can be described thus: Acute toxicity by oral administration on CDF1 mouse. To be noted: in vivo. The text has this: (C) Acute toxicity by oral administration on CDF1 mouse.
For the next data set, the system named is P-388 leukemia. To be noted: vs P-388 leukemia in mice; reported in U.S. Pat. No. 4,301,277; cited from earlier work.

Regarding `CC(=O)[C@]1(O)Cc2c(O)c3c(c(O)c2[C@@H](O[C@H]2C[C@H](N4CCOCC4)[C@H](O)[C@H](C)O2)C1)C(=O)c1c(O)cccc1C3=O` [3'-Deamino-3'-morpholino-carminomycin], the MIC (as a rule, the smallest concentration in the dilution series that meets the test's criterion for growth inhibition) in data set [1] is 0.78 µg/mL (≈ 1.34 µM); in [2] it was 1.56 µg/mL (≈ 2.67 µM); in [3], 0.39 µg/mL (≈ 0.668 µM); in data set [4], 1.56 µg/mL (≈ 2.67 µM); in data set [5], above 100 µg/mL; in the data set with Sarcina lutea PCI 1001 it was 0.78 µg/mL (≈ 1.34 µM). Besides, the MIC in the data set with Staph. aureus FDA 209P came to 0.78 µg/mL (≈ 1.34 µM); in the data set with Staph. aureus Smith, 6.25 µg/mL (≈ 10.7 µM). Besides, the IC50 (in general, the point on the concentration scale where inhibition reaches its midpoint) in the data set on leukemic cells L1210 [6] (L1210, 24 h, 1 day, read-out: IC50 growth, 1 day after) was 0.01 µg/mL (≈ 0.0171 µM); in the data set with leukemic cells L1210 [6] (L1210, 48 h, 2 days, read-out: IC50 growth, 2 days after), 0.0009 µg/mL (≈ 0.00154 µM); in the data set on leukemic cells L1210 [7] it was 0.09 µg/mL (≈ 0.154 µM); in the data set on leukemic cells L1210 [8], 0.013 µg/mL (≈ 0.0223 µM). Moreover, the “inhibition of growth and nucleic acid synthesis (in words)” value in the data set with leukemic cells L1210 [6] (cultivated L1210 cells of mice) is “markedly inhibit the growth and nucleic acid synthesis”. The “T/C % of the survival period” value in the data set with leukemic cells L1210 [9] (i.p., 0.39 μg/mouse/day) stood at 94%; with leukemic cells L1210 [9] (i.p., 0.78 μg/mouse/day), 122%; in the data set with leukemic cells L1210 [9] (i.p., 1.56 μg/mouse/day), 94%; with leukemic cells L1210 [9] (i.p., 3.125 μg/mouse/day), 122%; with leukemic cells L1210 [9] (i.p., 6.25 μg/mouse/day) it was 122%; with leukemic cells L1210 [9] (i.p., 12.5 μg/mouse/day), 194%. Further, the “T/C % of the survival period” value in the data set with leukemic cells L1210 [9] (p.o., 0.39 μg/mouse/day) is listed as 100%; in the data set on leukemic cells L1210 [9] (p.o., 0.78 μg/mouse/day) it was 111%; with leukemic cells L1210 [9] (p.o., 1.56 μg/mouse/day) it was 106%; in the data set on leukemic cells L1210 [9] (p.o., 3.125 μg/mouse/day) it was 133%; in the data set on leukemic cells L1210 [9] (p.o., 6.25 μg/mouse/day) it was 167%; in the data set on leukemic cells L1210 [9] (p.o., 12.5 μg/mouse/day) it was 206%. Besides, the “toxicity (footnote *)” value in the data set on leukemic cells L1210 [9] (i.p., 12.5 μg/mouse/day) is on record as “Toxic”. Moreover, the LD50 (usually the dose at which mortality reaches 50%) in data set [10] was determined as 1.56 mg/kg.
For `COc1cccc2c1C(=O)c1c(O)c3c(c(O)c1C2=O)C[C@@](O)(C(=O)CO)C[C@@H]3O[C@H]1C[C@H](N2CCOCC2)[C@H](O)[C@H](C)O1` [3'-deamino-3'-morpholino-adriamycin, 3'-Deamino-3'-morpholino-adriamycin], the “antitumor potency relative to adriamycin and daunomycin starting materials” value in the data set on P-388 leukemia was “significantly greater antitumor potency”.
In the case of `COc1cccc2c1C(=O)c1c(O)c3c(c(O)c1C2=O)C[C@@](O)(C(C)=O)C[C@@H]3O[C@H]1C[C@H](N2CCOCC2)[C@H](O)[C@H](C)O1` [3'-deamino-3'-morpholino-daunomycin, 3'-Deamino-3'-morpholinodaunomycin], in the data set on P-388 leukemia, the “antitumor potency relative to adriamycin and daunomycin starting materials” value is “significantly greater antitumor potency”.

The record behind these values is patent US4374980A, “3'-Deamino-3'-morpholino carminomycin” (Zaidan Hojin Biseibutsu Kagaku Kenkyu Kai, priority 1981, dated 1983).
